Earlier results on seven compounds are cited in patent US4242298A, “Polysaccharide ester membrane clearing process” (priority 1979, dated 1980).

One may read the LD50 as the dose at which mortality reaches 50%.

Each structure is given as a SMILES string. Read-outs that look alike come from different tables or passages of the source.

Data set [1] has as its system rat. The conditions noted are these: oral.
The test system of data set [2] is rats. The conditions noted are these: 2000 ppm, 8 hours.
For data set [3], the system named is rat. The conditions noted are these: inhalation.
The subject of data set [4] is rats. The note with it: 6 hours.
The subject of data set [5] is rats. The note with it: number of hours not given.

Take `CC(=O)CO` [acetol]: the LD50 in data set [1] is 2200 mg/kg. Moreover, in data set [2], the lethality on exposure entry was “nonlethal”.

For the compound `CC(=O)O` [Acetic Acid, reference compound], in data set [3] (4H), the LCLo is listed as 1600 ppm.

As to `O=C1CCCCC1` [Cyclohexanone, reference compound], the LD50 in data set [1] is given as 1620 mg/kg. Also, the LCLo in data set [3] (4H) is 2000 ppm.

Take `CCOCCO` [2-ethoxyethanol]: in data set [1], the median lethal dose (LD50) is given as 3000 mg/kg. Also, in data set [3] (4H), the LCLo is given as 4000 ppm.

For the compound `CCOCCOC(C)=O` [2-ethoxyethyl acetate], in data set [1], the LD50 is listed as 5100 mg/kg. The LCLo in data set [3] (8H) was 1500 ppm.

Regarding `COC(=O)CC(C)=O` [methyl acetoacetate], in data set [1], the LD50 is listed as 3000 mg/kg. Besides, in data set [4] (1370 ppm (calculated)), the “animal's growth, following exposure” value was “normal” and the symptoms on exposure result is on record as “no symptoms”. For the same compound, the “lethality on exposure to concentrated vapor” value in data set [5] is given as “nonlethal”.

Turning to `CCOC(=O)CC(C)=O` [ethyl acetoacetate], in data set [4] (1129 ppm (calculated)), the “animal's growth, following exposure” value is recorded as “normal” and the symptoms on exposure entry is on record as “no symptoms”.
